Data from patent US9814696B2, “Use of coumarin derivatives for the preparation of drugs for treating skin diseases” (UNIVERSITE PIERRE ET MARIE CURIE (PARIS 6), priority 2011, dated 2017).
Like-named read-outs stand apart in the source and are kept apart here.

Tests used:
[1] = molecular target: T1, KLK5 (Homo sapiens, UniProt Q9Y337); experiment: KLK5 enzyme inhibition assay, fluorogenic substrate Boc-Val-Pro-Arg-AMC; format: biochemical; details: 37° C., 15 min of incubation, pH 8
T1 sequence (Q9Y337 23-293): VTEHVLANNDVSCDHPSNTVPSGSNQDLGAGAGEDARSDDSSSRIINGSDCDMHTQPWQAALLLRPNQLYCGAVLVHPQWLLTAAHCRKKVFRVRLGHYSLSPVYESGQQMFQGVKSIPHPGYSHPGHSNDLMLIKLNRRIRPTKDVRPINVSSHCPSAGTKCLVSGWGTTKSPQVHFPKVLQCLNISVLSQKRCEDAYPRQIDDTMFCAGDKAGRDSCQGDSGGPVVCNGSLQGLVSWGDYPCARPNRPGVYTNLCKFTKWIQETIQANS
Experimental: (§1) Kallikreins KLK5, KLK7 and KLK14 activities were determined by monitoring the hydrolysis of the appropriate fluorogenic substrate (λexc=355, λem=460 nm) for 15 min at 37° C. in the presence of the untreated kallikrein (control) or kallikrein that had been incubated with a test compound. Substrate and compounds were previously dissolved in DMSO, with the final solvent concentration kept constant at 2% (v/v) (KLK 5 and 14), and 4% (v/v) (KLK7). The composition of the activity buffers (pH 8.0) was 100 mM Tris-HCl, 150 mM NaCl, 0.01% (v/v) Tween 20 for the KLK5 assay, and 100 mM Tris-HCl, 1M NaCl, 0.01% (v/v) Tween 20 in the KLK 7 and 14 assays. The final concentrations were 0.6 nM (KLK5) and 100 μM (Boc-Val-Pro-Arg-AMC) (KLK5 assay), 8 nM (KLK7) and 40 μM (Suc-Leu-Leu-Val-Tyr-AMC, AMC: 7-amino-4-methyl-coumarin) (KLK7 assay), and 0.17 nM (KLK14) and 10 μM (Boc-Val-Pro-Arg-AMC) (KLK14 assay). Using the appropriate substrate, the coumarinic compounds (0.01-100 μM) were tested in duplicate for each inhibitor concentration to detect their inhibitory potential. The enzyme and the inhibitors were incubated for 15 min before the determination of the enzyme activity. Initial rates determined in control experiments (V0) were considered to be 100% of the peptidase activity; initial rates below 100% were considered to be inhibitions. The inhibitory activity of compounds was expressed as IC50 (inhibitor concentrations giving 50% inhibition). The values of IC50 were calculated by fitting the experimental data to the equation: % Inhibition=100×(1−Vi/V0)=100[I]0/(IC50+[I]0), or equation: % Inhibition=100[I]0^nH/(IC50^nH+[I]0^nH),nH is the Hill number.
(§2) The tests were realized at 37° C. after 15 min of incubation at pH 8.

[2] = molecular target: KLK7 (Homo sapiens, UniProt P49862); experiment: KLK7 enzyme inhibition assay, fluorogenic substrate Suc-Leu-Leu-Val-Tyr-AMC; format: biochemical; details: for IC50: 37° C., 15 min of incubation, pH 8; for selective activity against enzyme: KLK7: Table B, among KLK5, KLK7 and KLK14
Experimental: as §1, §2

[3] = tested on: normal human keratinocytes; experiment: Neutral red uptake (NRU) cytotoxicity test / cell viability; format: cell-based; design: cytotoxicity, neutral red uptake test (FIG. 5): dose or concentration left out as unconfirmed; details: 48 h; for cytotoxicity, neutral red uptake test: 1 and 10 μM; for cytotoxicity, neutral red uptake test / cytotoxicity, neutral red uptake test (FIG. 5): human normal keratinocytes; for Toxicity, neutral red uptake test: normal human keratinocytes
Text: The NRU cytotoxicity assay procedure is a cell survival/viability chemosensitivity assay based on the ability of viable cells to incorporate and bind neutral red (NR), a supravital dye. NR is a weak cationic dye that readily penetrates cell membranes by non-ionic diffusion and accumulates intracellularly in lysosomes. Alterations of the cell surface or the sensitive lysosomal membrane lead to lysosomal fragility and other changes that gradually become irreversible. Such changes caused by the action of xenobiotics result in a decreased uptake and binding of NR. It is thus possible to distinguish between viable, damaged, or dead cells, which is the basis of this assay. After treatment with the small-molecules inhibitors, NR uptake in cells will be measured by spectrophotometry at 540±10 nm.
Keratinocytes from healthy persons or patients with Netherton syndrome are seeded at the density of 4000 cells in 125 μL of medium per well in 96-well plates.
After seeding, cells are incubated for 48 hours in the following experimental conditions: 37° C.±1° C., 90%±5.0% humidity, and 5%±1% CO2/air. This incubation period allows for cell recovery and adherence and progression to exponential growth phase.
Prepare inhibitors solutions 2-fold more concentrated than desired. Add 125 μL of these solutions to the wells without changing or removing the medium (125 μL).
48 h hours after the beginning of the treatment, carefully remove the medium (containing the tested inhibitor) and rinse the cells very carefully with 250 μL pre-warmed PBS.
Add 250 μL NR medium and incubate (37° C.±1° C., 90%±5% humidity, and 5.0%±1% CO2/air) for 3±0.1 h. NR medium is the culture medium containing 33 μg/mL of NR. After incubation, remove the NR medium, and carefully rinse cells with 250 μL pre-warmed PBS.
Measure the absorption (within 60 minutes after adding NR Desorb solution) of the resulting colored solution at 540 nm±10 nm in a microtiter plate reader (spectrophotometer), using the blank as a reference.
A calculation of cell viability expressed as NRU is made for each concentration of the tested inhibitor by using the mean NRU of the three replicate values per each concentration. This value is compared with the mean NRU of all vehicle values. Relative cell viability is then expressed as percent of untreated vehicle control (DMSO).
Normal human keratinocytes were seeded in a 96-well tissue culture plate. At 20% of confluence, molecules were added in the culture medium and incubated for 48 h. Neutral red medium was added to every well for an incubation period of 3 h, then the dye was extracted with acidified ethanol solution. Data (FIGS. 2 and 3) represent the mean cell viability after treatment +/−SD compared to mean viability of cells treated with the vehicle only (DMSO). Data represent the mean of 5 individual experiments.

[4] = molecular target: T2, KLK14 (Homo sapiens, UniProt Q9P0G3); experiment: KLK14 enzyme inhibition assay, fluorogenic substrate Boc-Val-Pro-Arg-AMC; format: biochemical; details: for inhibition at 100 µM / inhibition at 50 µM / IC50: 37° C., 15 min of incubation, pH 8
T2 sequence (Q9P0G3 25-251): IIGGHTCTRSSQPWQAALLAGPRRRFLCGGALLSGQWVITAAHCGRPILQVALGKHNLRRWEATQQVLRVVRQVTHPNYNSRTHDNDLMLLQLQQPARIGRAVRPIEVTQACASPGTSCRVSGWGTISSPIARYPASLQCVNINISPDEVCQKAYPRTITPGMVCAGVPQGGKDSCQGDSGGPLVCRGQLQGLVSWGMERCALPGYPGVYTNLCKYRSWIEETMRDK
Experimental: as §1, §2

[5] = Table A2, read-out: IC50 (nM) KLK7
[6] = Table A, read-out: IC50 (μM) KLK7
[7] = Table A, read-out: IC50 (μM) KLK14

Chain of KLK7 (P49862 30-253): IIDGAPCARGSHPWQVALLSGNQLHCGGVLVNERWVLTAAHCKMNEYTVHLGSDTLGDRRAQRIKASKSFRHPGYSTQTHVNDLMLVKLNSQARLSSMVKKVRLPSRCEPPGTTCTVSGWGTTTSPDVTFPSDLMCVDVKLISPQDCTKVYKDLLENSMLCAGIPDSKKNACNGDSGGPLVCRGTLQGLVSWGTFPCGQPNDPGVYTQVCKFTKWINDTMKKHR

With O=C(Oc1cccnc1)c1cc2cc(CCl)ccc2oc1=O [MFS33] the inhibition at 100 µM [1] was 62%, the IC50 [2, 5] was 5.7 ± 0.3 nM and the “cytotoxicity, neutral red uptake test” value [3] was “No noticeable cytotoxicity”. For the same compound, the inhibition at 100 µM [4] was 60%.
For NC(=O)c1ccccc1OC(=O)c1cc2cc(CCl)ccc2oc1=O [IK3], the “Toxicity, neutral red uptake test” value ([3]; 1 μM) was 16.09±8.32%, the “Toxicity, neutral red uptake test” value ([3]; 10 μM) was 47.1±4.43% and the inhibition at 100 µM [4] was 77%. The “selective activity against enzyme: KLK14” value ([4]; Table B, among KLK5, KLK7 and KLK14) was “KLK14”.
With O=C(Sc1ccccc1)c1cc2cc(CCl)ccc2oc1=O [LP41] the inhibition at 100 µM [1] was 32%, the IC50 [2, 6] was 390 ± 30 nM and the “cytotoxicity, neutral red uptake test” value [3] was “No noticeable cytotoxicity”. It also gave an inhibition at 100 µM [4] of 67%.
With O=C(Oc1cccc(I)c1)c1cc2cc(CCl)ccc2oc1=O [LP14] the inhibition at 100 µM [1] was 48%, the IC50 [2, 6] was 77 ± 3 nM and the “selective activity against enzyme: KLK7” value [2] was “KLK7”. For the same compound, the “cytotoxicity, neutral red uptake test” value [3] was “No noticeable cytotoxicity” and the inhibition at 100 µM [4] was 70%.
For COc1cccc(OC(=O)c2cc3cc(CCl)ccc3oc2=O)c1 [LP55], the IC50 [2, 6] was 8400 ± 200 nM, the “selective activity against enzyme: KLK7” value [2] was “KLK7” and the “cytotoxicity, neutral red uptake test” value [3] was “No noticeable cytotoxicity”.
For COC(=O)c1cccc(OC(=O)c2cc3cc(CCl)ccc3oc2=O)c1 [IK2], the IC50 [2, 6] was 680 ± 10 nM, the “selective activity against enzyme: KLK7” value [2] was “KLK7” and the “cytotoxicity, neutral red uptake test” value [3] was “No noticeable cytotoxicity”. The inhibition at 100 µM [4] was 67%.
O=C(Oc1cccc(Br)c1)c1cc2cc(CCl)ccc2oc1=O [LP53] was tested, and the inhibition at 50 µM [1] was 34%, the IC50 [2, 6] was 65 ± 3 nM and the “selective activity against enzyme: KLK7” value [2] was “KLK7”. The “cytotoxicity, neutral red uptake test” value [3] was “No noticeable cytotoxicity” and the inhibition at 100 µM [4] was 41%.
O=C(Oc1ccccc1)c1cc2cc(CBr)ccc2oc1=O [JFR5, Phenyl 6-bromomethyl-2-oxo-2H-1-benzopyran-3-carboxylate] was tested, and the inhibition at 50 µM [1] was 34%, the IC50 [2, 5] was 249 ± 3.5 nM and the “cytotoxicity, neutral red uptake test (FIG. 5)” value (from here on “cytotoxicity … (FIG. 5)”) [3] was “No noticeable cytotoxicity”. The inhibition at 50 µM [4] was 53%.
For O=C(Oc1ccccc1)c1cc2cc(CCl)ccc2oc1=O [MFS7], the inhibition at 50 µM [1] was 26%, the IC50 [2, 6] was 235 ± 9 nM and the “selective activity against enzyme: KLK7” value [2] was “KLK7”. The “cytotoxicity, neutral red uptake test” value [3] was “No noticeable cytotoxicity” and the inhibition at 100 µM [4] was 45%.
In the case of O=C(Oc1cc(F)ccc1F)c1cc2cc(CCl)ccc2oc1=O [CFL5], the inhibition at 100 µM [1] is reported as 35%, the IC50 [2, 6] is reported as 500 ± 40 nM and the “cytotoxicity, neutral red uptake test” value [3] is reported as “No noticeable cytotoxicity”. It also gave an IC50 [4, 7] of 39 ± 4 µM.
For O=C(Oc1ccc(Cl)cc1)c1cc2cc(CCl)ccc2oc1=O [LP7], the IC50 [2, 6] was 463 ± 7 nM and the “cytotoxicity, neutral red uptake test” value [3] was “No noticeable cytotoxicity”.
With O=C(Oc1cccc(F)c1)c1cc2cc(CBr)ccc2oc1=O [JFR11, 3-Fluorophenyl 6-bromomethyl-2-oxo-2H-1-benzopyran-3-carboxylate] the inhibition at 50 µM [1] was 42%, the IC50 [2, 5] was 198 ± 8 nM and the “cytotoxicity … (FIG. 5)” value [3] was “No noticeable cytotoxicity”. For the same compound, the inhibition at 50 µM [4] was 48%.
In the case of NC(=O)c1cccc(OC(=O)c2cc3cc(CCl)ccc3oc2=O)c1 [IK4], the IC50 ([1]; Table A, read-out: IC50 (μM) KLK5) is reported as 21.6 ± 5 µM, the IC50 [2, 6] is reported as 7800 ± 600 nM and the “cytotoxicity, neutral red uptake test” value [3] is reported as “No noticeable cytotoxicity”. For the same compound, the IC50 [4, 7] was 30 ± 8 µM.
For O=C(Oc1cccc(Br)c1)c1cc2cc(CBr)ccc2oc1=O [JFR8, 3-Bromophenyl 6-bromomethyl-2-oxo-2H-1-benzopyran-3-carboxylate], the IC50 ([1]; Table A2, read-out: IC50 (nM) KLK5) was 1.47 ± 0.06 µM, the IC50 [2, 5] was 57 ± 2 nM and the “selective activity against enzyme: KLK7” value [2] was “KLK7”. The “cytotoxicity … (FIG. 5)” value [3] was “No noticeable cytotoxicity” and the IC50 ([4]; Table A2, read-out: IC50 (nM) KLK14) was 3 ± 0.1 µM.
In the case of COc1cc(Cl)cc(OC(=O)c2cc3cc(CCl)ccc3oc2=O)c1 [LP61], the IC50 [2, 6] is reported as 130 ± 5 nM and the “cytotoxicity, neutral red uptake test” value [3] is reported as “No noticeable cytotoxicity”.
